From US20240349726A1, “SUBSTITUTED 1,2,4-THIADIAZOLYL NICOTINAMIDES, SALTS OR N-OXIDES THEREOF AND THEIR USE AS HERBICIDALLY ACTIVE SUBSTANCES” (Bayer Aktiengesellschaft, priority 2021, published 2024)

Columns and labels:
Assay type in all cases: in vivo
Lolium rigidum [1] = assay: Herbicidal pre-emergence action, LOLRI; conditions: visual grading after ca. 3 weeks vs untreated controls
Source text: (§1) Seeds of mono- and dicotyledonous weed plants were sown in plastic pots (double sowings with one species of mono- and one species of dicotyledonous weed plants per pot), in sandy loam, and covered with soil. The compounds according to the invention, formulated in the form of wettable powders (WP) or as emulsifiable concentrates (EC), were applied to the surface of the covering soil as an aqueous suspension or as an emulsion, with the addition of 0.5% of an additive, at an application rate of 600 litres of water per hectare (converted). Following treatment, the pots were placed in a greenhouse and kept under optimum growth conditions for the test plants. The visual grading of the damage to the test plants is carried out after ca. 3 weeks in comparison to untreated controls (herbicidal effect in percent (%): 100% effect=plants have died, 0% effect=as control plants). Seeds of mono- and dicotyledonous weed plants were sown in plastic pots (double sowings with one species of mono- and one species of dicotyledonous weed plants per pot), in sandy loam, and covered with soil. The compounds according to the invention, formulated in the form of wettable powders (WP) or as emulsifiable concentrates (EC), were applied to the surface of the covering soil as an aqueous suspension or as an emulsion, with the addition of 0.5% of an additive, at an application rate of 600 litres of water per hectare (converted). Following treatment, the pots were placed in a greenhouse and kept under optimum growth conditions for the test plants. The visual grading of the damage to the test plants is carried out after ca. 3 weeks in comparison to untreated controls (herbicidal effect in percent (%): 100% effect=plants have died, 0% effect=as control plants).

Matricaria inodora [2] = assay: Herbicidal pre-emergence action, MATIN; conditions: visual grading after ca. 3 weeks vs untreated controls
Source text: as §1

Setaria viridis [3] = assay: Herbicidal pre-emergence action, SETVI; conditions: 1280 g/ha, visual grading after ca. 3 weeks vs untreated controls
Source text: Seeds of mono- and dicotyledonous weed plants were sown in plastic pots (double sowings with one species of mono- and one species of dicotyledonous weed plants per pot), in sandy loam, and covered with soil. The compounds according to the invention, formulated in the form of wettable powders (WP) or as emulsifiable concentrates (EC), were applied to the surface of the covering soil as an aqueous suspension or as an emulsion, with the addition of 0.5% of an additive, at an application rate of 600 litres of water per hectare (converted). Following treatment, the pots were placed in a greenhouse and kept under optimum growth conditions for the test plants. The visual grading of the damage to the test plants is carried out after ca. 3 weeks in comparison to untreated controls (herbicidal effect in percent (%): 100% effect=plants have died, 0% effect=as control plants).

Stellaria media [4] = assay: Herbicidal pre-emergence action, STEME; conditions: visual grading after ca. 3 weeks vs untreated controls
Source text: as §1

Poa annua [5] = assay: Herbicidal pre-emergence action, POAAN; conditions: visual grading after ca. 3 weeks vs untreated controls
Source text: as §1

Amaranthus retroflexus [6] = assay: Herbicidal pre-emergence action, AMARE; conditions: visual grading after ca. 3 weeks vs untreated controls
Source text: as §1

Lolium rigidum [7] = assay: Herbicidal post-emergence action, LOLRI; conditions: assessed visually after ca. 3 weeks vs untreated controls
Source text: (§2) Seeds of mono- and dicotyledonous weed plants were sown in plastic pots (double sowings with one species of mono- and one species of dicotyledonous weed plants per pot), in sandy loam, covered with soil and grown under controlled growth conditions. 2 to 3 weeks after sowing, the test plants were sprayed in the single-leaf stage. The compounds according to the invention, formulated in the form of wettable powders (WP) or as emulsifiable concentrates (EC), were sprayed onto the green plant parts as an aqueous suspension or as an emulsion, with the addition of 0.5% of an additive, at an application rate of 600 litres of water per hectare (converted). The test plants were placed in the greenhouse for ca. 3 weeks under optimum growth conditions, and then the effect of the preparations is assessed visually in comparison with untreated controls (herbicidal effect in percent (%): 100% effect=plants have died, 0% effect=as control plants). […]

Matricaria inodora [8] = assay: Herbicidal post-emergence action, MATIN; conditions: assessed visually after ca. 3 weeks vs untreated controls
Source text: as §2

Stellaria media [9] = assay: Herbicidal post-emergence action, STEME; conditions: assessed visually after ca. 3 weeks vs untreated controls
Source text: as §2

Poa annua [10] = assay: Herbicidal post-emergence action, POAAN; conditions: assessed visually after ca. 3 weeks vs untreated controls
Source text: as §2

Amaranthus retroflexus [11] = assay: Herbicidal post-emergence action, AMARE; conditions: 1280 g/ha, assessed visually after ca. 3 weeks vs untreated controls
Source text: as §2

Kochia scoparia [12] = assay: Herbicidal pre-emergence action, KCHSC; conditions: 1280 g/ha, visual grading after ca. 3 weeks vs untreated controls
Source text: as §1

Veronica persica [13] = assay: Herbicidal pre-emergence action, VERPE; conditions: visual grading after ca. 3 weeks vs untreated controls
Source text: as §1

Abutilon theophrasti = assay: Herbicidal post-emergence action, ABUTH; conditions: 1280 g/ha, assessed visually after ca. 3 weeks vs untreated controls
Source text: as §2

Alopecurus myosuroides = assay: Herbicidal post-emergence action, ALOMY; conditions: assessed visually after ca. 3 weeks vs untreated controls
Source text: as §2

Kochia scoparia [14] = assay: Herbicidal post-emergence action, KCHSC; conditions: assessed visually after ca. 3 weeks vs untreated controls
Source text: as §2

Setaria viridis [15] = assay: Herbicidal post-emergence action, SETVI; conditions: 1280 g/ha, assessed visually after ca. 3 weeks vs untreated controls
Source text: Seeds of mono- and dicotyledonous weed plants were sown in plastic pots (double sowings with one species of mono- and one species of dicotyledonous weed plants per pot), in sandy loam, covered with soil and grown under controlled growth conditions. 2 to 3 weeks after sowing, the test plants were sprayed in the single-leaf stage. The compounds according to the invention, formulated in the form of wettable powders (WP) or as emulsifiable concentrates (EC), were sprayed onto the green plant parts as an aqueous suspension or as an emulsion, with the addition of 0.5% of an additive, at an application rate of 600 litres of water per hectare (converted). The test plants were placed in the greenhouse for ca. 3 weeks under optimum growth conditions, and then the effect of the preparations is assessed visually in comparison with untreated controls (herbicidal effect in percent (%): 100% effect=plants have died, 0% effect=as control plants).

Veronica persica [16] = assay: Herbicidal post-emergence action, VERPE; conditions: assessed visually after ca. 3 weeks vs untreated controls
Source text: as §2

Question: For `O=C(Nc1ncns1)c1cnccc1C(F)(F)F` [Example I-001], which “herbicidal effect LOLRI” value (Lolium rigidum [1]; 1280 g/ha) is on record?
Answer: 100%

Question: And the “herbicidal effect MATIN” value (Matricaria inodora [2]; 1280 g/ha)?
Answer: 100%

Question: What about the “herbicidal effect SETVI” value (Setaria viridis [3]) of the same compound?
Answer: 90%

Question: What about the “herbicidal effect STEME” value (Stellaria media [4]; 320 g/ha) of the same compound?
Answer: 100%

Question: What about the “herbicidal effect STEME” value (Stellaria media [4]; 1280 g/ha) of the same compound?
Answer: 100%

Question: And the “herbicidal effect POAAN” value (Poa annua [5]; 320 g/ha)?
Answer: 100%

Question: What about the “herbicidal effect POAAN” value (Poa annua [5]; 1280 g/ha) of the same compound?
Answer: 100%

Question: And the “herbicidal effect AMARE” value (Amaranthus retroflexus [6]; 320 g/ha)?
Answer: 100%

Question: What about the “herbicidal effect AMARE” value (Amaranthus retroflexus [6]; 1280 g/ha) of the same compound?
Answer: 100%

Question: And the “herbicidal effect LOLRI” value (Lolium rigidum [7]; 1280 g/ha)?
Answer: 90%

Question: And the “herbicidal effect MATIN” value (Matricaria inodora [8]; 320 g/ha)?
Answer: 90%

Question: What about the “herbicidal effect MATIN” value (Matricaria inodora [8]; 1280 g/ha) of the same compound?
Answer: 100%

Question: And the “herbicidal effect STEME” value (Stellaria media [9]; 320 g/ha)?
Answer: 100%

Question: And the “herbicidal effect STEME” value (Stellaria media [9]; 1280 g/ha)?
Answer: 100%

Question: And the “herbicidal effect POAAN” value (Poa annua [10]; 320 g/ha)?
Answer: 100%

Question: What about the “herbicidal effect POAAN” value (Poa annua [10]; 1280 g/ha) of the same compound?
Answer: 100%

Question: What about the “herbicidal effect AMARE” value (Amaranthus retroflexus [11]) of the same compound?
Answer: 90%

Question: `O=C(Nc1ncns1)c1c(C(F)(F)F)ccnc1F` [Example I-002] was tested. Which “herbicidal effect KCHSC” value (Kochia scoparia [12]) did it give?
Answer: 90%

Question: And the “herbicidal effect LOLRI” value (Lolium rigidum [1]; 320 g/ha)?
Answer: 100%

Question: What about the “herbicidal effect LOLRI” value (Lolium rigidum [1]; 1280 g/ha) of the same compound?
Answer: 100%

Question: And the “herbicidal effect MATIN” value (Matricaria inodora [2]; 320 g/ha)?
Answer: 90%

Question: What about the “herbicidal effect MATIN” value (Matricaria inodora [2]; 1280 g/ha) of the same compound?
Answer: 100%

Question: And the “herbicidal effect STEME” value (Stellaria media [4]; 320 g/ha)?
Answer: 100%

Question: What about the “herbicidal effect STEME” value (Stellaria media [4]; 1280 g/ha) of the same compound?
Answer: 100%

Question: And the “herbicidal effect VERPE” value (Veronica persica [13]; 320 g/ha)?
Answer: 90%

Question: What about the “herbicidal effect VERPE” value (Veronica persica [13]; 1280 g/ha) of the same compound?
Answer: 100%

Question: And the “herbicidal effect POAAN” value (Poa annua [5]; 320 g/ha)?
Answer: 100%

Question: And the “herbicidal effect POAAN” value (Poa annua [5]; 1280 g/ha)?
Answer: 100%

Question: And the “herbicidal effect AMARE” value (Amaranthus retroflexus [6]; 1280 g/ha)?
Answer: 90%

Question: And the “herbicidal effect ABUTH” value (Abutilon theophrasti)?
Answer: 90%

Question: And the “herbicidal effect ALOMY” value (Alopecurus myosuroides; 320 g/ha)?
Answer: 100%

Question: And the “herbicidal effect ALOMY” value (Alopecurus myosuroides; 1280 g/ha)?
Answer: 100%

Question: And the “herbicidal effect KCHSC” value (Kochia scoparia [14]; 320 g/ha)?
Answer: 100%

Question: And the “herbicidal effect KCHSC” value (Kochia scoparia [14]; 1280 g/ha)?
Answer: 100%

Question: What about the “herbicidal effect LOLRI” value (Lolium rigidum [7]; 320 g/ha) of the same compound?
Answer: 90%

Question: And the “herbicidal effect LOLRI” value (Lolium rigidum [7]; 1280 g/ha)?
Answer: 100%

Question: And the “herbicidal effect MATIN” value (Matricaria inodora [8]; 320 g/ha)?
Answer: 90%

Question: What about the “herbicidal effect MATIN” value (Matricaria inodora [8]; 1280 g/ha) of the same compound?
Answer: 100%

Question: What about the “herbicidal effect SETVI” value (Setaria viridis [15]) of the same compound?
Answer: 90%

Question: And the “herbicidal effect STEME” value (Stellaria media [9]; 320 g/ha)?
Answer: 100%

Question: What about the “herbicidal effect STEME” value (Stellaria media [9]; 1280 g/ha) of the same compound?
Answer: 100%

Question: And the “herbicidal effect VERPE” value (Veronica persica [16]; 320 g/ha)?
Answer: 100%

Question: What about the “herbicidal effect VERPE” value (Veronica persica [16]; 1280 g/ha) of the same compound?
Answer: 100%

Question: And the “herbicidal effect POAAN” value (Poa annua [10]; 320 g/ha)?
Answer: 100%

Question: What about the “herbicidal effect POAAN” value (Poa annua [10]; 1280 g/ha) of the same compound?
Answer: 100%

Question: What about the “herbicidal effect AMARE” value (Amaranthus retroflexus [11]) of the same compound?
Answer: 100%
